Source: publication PMC9033141, “Beta and Gamma Amino Acid-Substituted Benzenesulfonamides as Inhibitors of Human Carbonic Anhydrases” (Pharmaceuticals, 2022)
Like-named read-outs stand apart in the source and are kept apart here.

What was measured:
[1] = target: T1, CAII (Homo sapiens, UniProt P00918); conditions: FTSA, pH 7.0, 37 °C; taken from previous publication; read-out: Observed Dissociation Constant (Kd_obs), CAII; cited from earlier work;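 for Intrinsic Gibbs energy change (ΔGint), CAII: recombinant human CAII, thermal shift with ANS dye fluorescence, Kd_obs from fitting melting temperature versus ligand concentration, intrinsic values corrected for deprotonated sulfonamide and Zn-bound water fractions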
T1 construct: made in house; host or cells: E. coli

[2] = target: T2, CAIX (Homo sapiens, UniProt Q16790); conditions: FTSA, pH 7.0, 37 °C; taken from previous publication; read-out: Observed Dissociation Constant (Kd_obs), CAIX; cited from earlier work
T2 construct: made in house

[3] = target: T3, CAI (Homo sapiens, UniProt P00915); conditions: FTSA, pH 7.0, 37 °C; taken from previous publication; read-out: Observed Dissociation Constant (Kd_obs), CAI; cited from earlier work;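 for Intrinsic Gibbs energy change (ΔGint), CAI: human CAI expressed in E. coli, ANS fluorescence thermal shift with Kd fitted from melting temperature versus ligand concentration, intrinsic values correct for deprotonated sulfonamide and Zn-water CA fractions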
T3 construct: made in house; host or cells: E. coli

[4] = target: T4, CAXII (Homo sapiens, UniProt O43570); conditions: FTSA, pH 7.0, 37 °C; taken from previous publication; read-out: Observed Dissociation Constant (Kd_obs), CAXII; cited from earlier work;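 for Intrinsic Gibbs energy change (ΔGint), CAXII: recombinant CAXII made in E. coli, ANS-fluorescence thermal shift with affinity fitted from Tm versus ligand concentration, intrinsic energy from Kd_obs corrected for deprotonated sulfonamide and Zn-water fractions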
T4 construct: made in house; host or cells: E. coli

[5] = target: T5, CAVA (Homo sapiens, UniProt P35218); test: Fluorescent thermal shift assay (FTSA), CAVA; type: binding; conditions: for Kd: FTSA
T5 construct: made in house; host or cells: E. coli
Method: (§1) Human CA isozymes were expressed in E. coli (CAI, II, III, IV, VA, VB, VII, XII, XIII, XIV) or mammalian cells (CAVI and CAIX), chromatographically purified following the published protocols [47], and stored at −80 °C. The protein concentration was determined by UV absorption at 280 nm using Beer–Lambert law.
(§2) The QIAGEN Rotor-Gene Q was used to carry out the experiments, with a blue channel used for excitation (365 nm) and detection (460 nm). FTSA in this case relies on an extrinsic probe, 8-anilino-1-naphthalenesulfonate (ANS), to detect the fluorescence increase during protein denaturation, from which protein melting temperature (Tm) can be determined. […] The observed affinity of ligands for CAs was determined by plotting the Tm as a function of ligand concentration and then fitting a curve as described previously [48]. […] Samples were heated from 25 °C to 99 °C at the speed of 1 °C/min.
(§3) The intrinsic thermodynamic parameters were calculated as described in [40]. The intrinsic reaction of inhibitor binding to CA is shown in Equation (1). […] It is known that CA proteins bind sulfonamides only when water molecules are coordinated to the Zn(II) ion, and sulfonamides only bind to CA proteins when their amino group is deprotonated (confirmed by neutron crystallography [53, 54, 55]):(1) CA Zn^II−H2O+RSO2NH^−⇄ CA Zn^II−NH SO2R+H2O
(§4) When calculating Kd_int values, these protein and ligand fractions from Equation (1) have to be accounted for (Equations (2) and (3)). The intrinsic dissociation constant is calculated by multiplying Kd_obs value by the corresponding fractions of protein and ligand (Equation (4)). (2) fRSO2NH^−=10^pH−pKa_RSO2NH2/1+10^pH−pKa_RSO2NH2 (3) fCAZnH2O=1−10^pH−pKa_CAZnH2O/1+10^pH−pKa_CAZnH2O (4) Kd_int=Kd_obs×fRSO2NH^−×fCAZnH2O (5) ΔGint0=RTlnKd_int
(§5) The intrinsic standard Gibbs energy changes upon binding were calculated using Equation (5). Here, R—universal ideal gas constant (8.3144 J/mol·K), T—absolute temperature (310.15 K).

[6] = target: T6, CAXIII (Homo sapiens, UniProt Q8N1Q1); test: biochemical; conditions: Observed Dissociation Constant (Kd_obs), FTSA, pH 7.0, 37 °C;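 note: recombinant human CAXIII melting temperature tracked by ANS fluorescence in thermal shift assay, Tm fitted against ligand concentration, intrinsic value corrects Kd for deprotonated sulfonamide and Zn-bound water fractions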
[7] = Determination of compound sulfonamide group pKa (UV-Vis spectra at different pH); type: physicochemical
Method: To calculate the intrinsic thermodynamic parameters of compound binding to CA isozymes, the pKa values of the sulfonamide group and the water molecule bound to the Zn(II) ion at the active site of CA proteins had to be determined. The pKa values for CA isozyme-bound water molecules were taken from, CAI—8.1; CAII—6.9; CAIII—6.5; CAIV—6.6; CAVA—6.7; CAVB—7.0; CAVI—6.0; CAVII—6.8; CAIX—6.6; CAXII—6.8; CAXIII—8.0; CAXIV—6.1. […] The pKa values were calculated as described previously in [28, 52] by normalizing the absorbance, plotting it as a function of pH, then fitting to the Henderson–Hasselbalch equation using the least square method (Figure S105).
Since the pKa values were only able to be measured for compound group 26–36, due to universal buffer pH limitations, intrinsic thermodynamic parameters were not calculated for compounds 2(a,b)–25(a,b), only for compounds 26–36 using experimentally obtained pKa values when possible and using the average pKa value mentioned above for compounds not measured.

[8] = target: T7, CAXIV (Homo sapiens, UniProt Q9ULX7); test: Fluorescent thermal shift assay (FTSA), CAXIV; type: binding; conditions: for Intrinsic Gibbs energy change (ΔGint), CAXIV: 37 °C, calculated (Equation 5); for Kd: FTSA, pH 7.0, 37 °C, read-out: Observed Dissociation Constant (Kd_obs), CAXIV;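 for all read-outs here: recombinant human CA XIV from E. coli, ANS-based thermal shift: Kd_obs fitted from melting temperature versus ligand concentration, ΔGint from Kd_obs corrected for deprotonated sulfonamide and Zn-water fractions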
T7 construct: made in house; host or cells: E. coli
Method: as §1, §2, §3, §4, §5

[9] = target: T8, CAVB (Homo sapiens, UniProt Q9Y2D0); test: Fluorescent thermal shift assay (FTSA), CAVB; type: binding; conditions: for Intrinsic Gibbs energy change (ΔGint), CAVB: 37 °C, calculated (Equation 5); for Kd: FTSA, pH 7.0, 37 °C, read-out: Observed Dissociation Constant (Kd_obs), CAVB
T8 construct: made in house; host or cells: E. coli
Method: as §1, §2, §3, §4, §5

[10] = target: T9, CAVII (Homo sapiens, UniProt P43166); test: Fluorescent thermal shift assay (FTSA), CAVII; type: binding; conditions: for Intrinsic Gibbs energy change (ΔGint), CAVII: 37 °C, calculated (Equation 5); for Kd: FTSA, pH 7.0, 37 °C, read-out: Observed Dissociation Constant (Kd_obs), CAVII
T9 construct: made in house; host or cells: E. coli

[11] = target: T2, CAIX; test: biochemical; type: binding; conditions: for Intrinsic Gibbs energy change (ΔGint), CAIX: 37 °C, calculated (Equation 5); for Kd: FTSA, pH 7.0, 37 °C, read-out: Observed Dissociation Constant (Kd_obs), CAIX
[12] = target: T3, CAI; test: biochemical; type: binding; conditions: for Intrinsic Gibbs energy change (ΔGint), CAI: 37 °C, calculated (Equation 5); for Kd: FTSA, pH 7.0, 37 °C, read-out: Observed Dissociation Constant (Kd_obs), CAI
Method: as §1, §2
The intrinsic thermodynamic parameters were calculated as described in [40]. The intrinsic reaction of inhibitor binding to CA is shown in Equation (1).
as §4, §5

[13] = target: T6, CAXIII; conditions: 37 °C; calculated (Equation 5)
[14] = target: T10, CAIV (Homo sapiens, UniProt P22748); test: Fluorescent thermal shift assay (FTSA), CAIV; type: binding; conditions: for Intrinsic Gibbs energy change (ΔGint), CAIV: 37 °C, calculated (Equation 5); for Kd: FTSA, pH 7.0, 37 °C, read-out: Observed Dissociation Constant (Kd_obs), CAIV;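 for all read-outs here: recombinant human enzyme, thermal denaturation followed by ANS fluorescence, melting temperature versus ligand concentration fitted for Kd_obs, intrinsic value corrected for deprotonated sulfonamide and Zn-bound water fractions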
T10 construct: made in house; host or cells: E. coli
Method: as §1, §2, §3, §4, §5

[15] = target: T4, CAXII; test: biochemical; type: binding; conditions: for Intrinsic Gibbs energy change (ΔGint), CAXII: 37 °C, calculated (Equation 5); for Kd: FTSA, pH 7.0, 37 °C, read-out: Observed Dissociation Constant (Kd_obs), CAXII
[16] = target: T1, CAII; test: biochemical; type: binding; conditions: for Intrinsic Gibbs energy change (ΔGint), CAII: 37 °C, calculated (Equation 5); for Kd: FTSA, pH 7.0, 37 °C, read-out: Observed Dissociation Constant (Kd_obs), CAII
[17] = target: T11, CAIII (Homo sapiens, UniProt P07451); test: Fluorescent thermal shift assay (FTSA), CAIII; type: binding; conditions: for Kd: FTSA, pH 7.0, 37 °C, read-out: Observed Dissociation Constant (Kd_obs), CAIII
T11 construct: made in house; host or cells: E. coli
Method: as §1, §2, §3, §4, §5

[18] = target: T12, CAVI (Homo sapiens, UniProt P23280); test: Fluorescent thermal shift assay (FTSA), CAVI; type: binding; conditions: for Intrinsic Gibbs energy change (ΔGint), CAVI: 37 °C, calculated (Equation 5); for Kd: FTSA, pH 7.0, 37 °C, read-out: Observed Dissociation Constant (Kd_obs), CAVI;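 for all read-outs here: human CAVI expressed in mammalian cells, ANS fluorescence tracked during thermal unfolding, melting temperature fitted against ligand concentration, intrinsic values corrected for deprotonated sulfonamide and Zn-bound water fractions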
T12 construct: made in house
Method: as §1, §2, §3, §4, §5

[19] = target: T1, CAII; test: Isothermal titration calorimetry (ITC), CAII; type: binding; conditions: pH 7.0, 37 °C, read-out: Observed Dissociation Constant (Kd_obs), CAII, ITC data in brackets
[20] = target: T8, CAVB; test: Isothermal titration calorimetry (ITC), CAVB; type: binding; conditions: pH 7.0, 37 °C
[21] = pH 7.0, 37 °C, read-out: Observed Dissociation Constant (Kd_obs), CAVA
[22] = universal buffer, spectrophotometric, 37 °C, read-out: Sulfonamide pKa

T5 sequence (P35218 39-305): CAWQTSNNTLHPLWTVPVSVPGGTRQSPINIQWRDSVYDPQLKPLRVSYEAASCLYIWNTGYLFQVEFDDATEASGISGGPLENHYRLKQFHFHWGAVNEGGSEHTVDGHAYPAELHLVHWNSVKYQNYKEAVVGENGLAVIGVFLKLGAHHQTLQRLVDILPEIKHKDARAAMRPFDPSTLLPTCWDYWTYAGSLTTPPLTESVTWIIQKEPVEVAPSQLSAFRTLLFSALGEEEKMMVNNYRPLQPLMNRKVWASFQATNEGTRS
T6 sequence (Q8N1Q1 whole entry): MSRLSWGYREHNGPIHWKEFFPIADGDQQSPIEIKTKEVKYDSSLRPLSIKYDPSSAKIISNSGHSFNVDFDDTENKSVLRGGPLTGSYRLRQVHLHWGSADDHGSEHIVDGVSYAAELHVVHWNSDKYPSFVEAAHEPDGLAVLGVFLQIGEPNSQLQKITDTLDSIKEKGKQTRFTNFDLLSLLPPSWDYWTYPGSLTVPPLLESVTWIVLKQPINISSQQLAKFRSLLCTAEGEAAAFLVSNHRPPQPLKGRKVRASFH
T11 sequence (P07451 whole entry): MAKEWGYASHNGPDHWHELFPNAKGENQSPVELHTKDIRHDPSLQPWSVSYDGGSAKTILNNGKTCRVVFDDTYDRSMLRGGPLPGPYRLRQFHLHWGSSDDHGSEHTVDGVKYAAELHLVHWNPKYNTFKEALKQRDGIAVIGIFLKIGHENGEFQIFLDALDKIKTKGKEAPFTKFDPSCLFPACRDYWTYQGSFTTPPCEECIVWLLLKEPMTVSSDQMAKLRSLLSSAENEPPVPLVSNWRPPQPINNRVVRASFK
T7 sequence (Q9ULX7 16-337): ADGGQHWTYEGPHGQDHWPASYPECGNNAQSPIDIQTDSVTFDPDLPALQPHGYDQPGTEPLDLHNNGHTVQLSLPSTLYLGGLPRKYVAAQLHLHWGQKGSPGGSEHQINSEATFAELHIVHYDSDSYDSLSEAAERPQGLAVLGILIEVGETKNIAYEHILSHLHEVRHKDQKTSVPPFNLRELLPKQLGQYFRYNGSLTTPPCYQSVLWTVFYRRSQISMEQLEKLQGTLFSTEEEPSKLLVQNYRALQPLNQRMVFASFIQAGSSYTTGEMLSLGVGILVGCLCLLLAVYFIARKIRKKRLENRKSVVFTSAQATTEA
T12 sequence (P23280 21-290 limits assumed): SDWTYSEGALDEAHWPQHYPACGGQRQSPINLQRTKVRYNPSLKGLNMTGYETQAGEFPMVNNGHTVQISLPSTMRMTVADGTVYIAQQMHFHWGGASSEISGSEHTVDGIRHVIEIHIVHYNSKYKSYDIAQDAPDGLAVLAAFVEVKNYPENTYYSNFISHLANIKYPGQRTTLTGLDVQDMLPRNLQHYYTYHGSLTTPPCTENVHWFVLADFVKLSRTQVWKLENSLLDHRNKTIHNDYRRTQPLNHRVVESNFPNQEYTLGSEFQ
T10 sequence (P22748 19-312): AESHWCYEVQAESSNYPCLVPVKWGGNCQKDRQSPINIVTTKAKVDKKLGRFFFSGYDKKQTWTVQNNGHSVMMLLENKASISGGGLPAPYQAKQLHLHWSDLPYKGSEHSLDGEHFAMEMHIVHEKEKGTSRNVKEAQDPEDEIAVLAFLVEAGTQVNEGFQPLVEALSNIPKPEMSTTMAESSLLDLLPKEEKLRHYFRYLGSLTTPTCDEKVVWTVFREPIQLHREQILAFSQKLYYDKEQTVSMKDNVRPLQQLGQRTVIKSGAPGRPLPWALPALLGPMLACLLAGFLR
T9 sequence (P43166 whole entry): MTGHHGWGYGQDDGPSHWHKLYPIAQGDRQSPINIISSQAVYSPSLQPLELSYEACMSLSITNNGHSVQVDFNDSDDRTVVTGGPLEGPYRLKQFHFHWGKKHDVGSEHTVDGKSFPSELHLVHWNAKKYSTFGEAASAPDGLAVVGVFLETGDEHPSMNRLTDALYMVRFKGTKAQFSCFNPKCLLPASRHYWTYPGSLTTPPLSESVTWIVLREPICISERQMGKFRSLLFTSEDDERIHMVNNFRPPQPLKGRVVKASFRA
T8 sequence (Q9Y2D0 34-317): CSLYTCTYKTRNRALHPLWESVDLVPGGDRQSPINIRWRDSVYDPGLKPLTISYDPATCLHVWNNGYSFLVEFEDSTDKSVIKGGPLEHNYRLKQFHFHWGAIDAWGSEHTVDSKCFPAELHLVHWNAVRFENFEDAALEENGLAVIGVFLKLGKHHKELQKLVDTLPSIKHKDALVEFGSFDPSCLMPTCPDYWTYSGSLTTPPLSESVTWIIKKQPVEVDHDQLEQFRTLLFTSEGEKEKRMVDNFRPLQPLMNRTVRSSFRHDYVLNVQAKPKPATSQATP
T3 sequence (P00915 whole entry): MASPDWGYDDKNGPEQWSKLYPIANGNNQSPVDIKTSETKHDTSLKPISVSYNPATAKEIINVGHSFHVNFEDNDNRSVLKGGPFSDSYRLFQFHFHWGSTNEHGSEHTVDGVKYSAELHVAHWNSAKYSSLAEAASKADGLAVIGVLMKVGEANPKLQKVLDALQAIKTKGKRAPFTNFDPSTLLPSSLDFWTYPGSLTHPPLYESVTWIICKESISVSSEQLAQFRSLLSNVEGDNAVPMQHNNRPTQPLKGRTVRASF
T4 sequence (O43570 25-354): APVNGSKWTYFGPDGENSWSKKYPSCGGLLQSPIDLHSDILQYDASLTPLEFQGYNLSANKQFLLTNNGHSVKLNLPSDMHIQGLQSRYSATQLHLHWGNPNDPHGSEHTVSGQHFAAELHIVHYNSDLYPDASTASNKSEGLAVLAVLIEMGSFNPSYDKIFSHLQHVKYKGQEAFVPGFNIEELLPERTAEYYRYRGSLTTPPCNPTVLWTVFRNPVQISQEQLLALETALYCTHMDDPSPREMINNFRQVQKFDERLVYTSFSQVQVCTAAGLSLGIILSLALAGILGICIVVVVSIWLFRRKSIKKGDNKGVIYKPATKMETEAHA

| SMILES | Kd [6] | Intrinsic Gibbs energy change (ΔGint), CAXIV [8] | Kd [8] | Intrinsic Gibbs energy change (ΔGint), CAVB [9] | Kd [9] | Intrinsic Gibbs energy change (ΔGint), CAVII [10] | Kd [10] | Intrinsic Gibbs energy change (ΔGint), CAIX [11] | Kd [11] | Intrinsic Gibbs energy change (ΔGint), CAI [12] | Kd [12] | Intrinsic Gibbs energy change (ΔGint), CAXIII [13] | Intrinsic Gibbs energy change (ΔGint), CAIV [14] | Kd [14] | Intrinsic Gibbs energy change (ΔGint), CAXII [15] | Kd [15] | Intrinsic Gibbs energy change (ΔGint), CAII [16] | Kd [16] | Kd [17] | melting point | further results |
| --- | --- | --- | --- | --- | --- | --- | --- | --- | --- | --- | --- | --- | --- | --- | --- | --- | --- | --- | --- | --- | --- |
| Cc1cc(C)n(C(=O)C2CC(=O)N(c3ccc(S(N)(=O)=O)cc3)C2)n1 (stereo not shown) [Compound 21] |  |  |  |  |  |  |  |  |  |  |  |  |  |  |  |  |  |  |  |  | Kd [1]: 66 nM; Kd [2]: 220 nM; Kd [3]: 250 nM; Kd [4]: 1400 nM |
| NC(=S)N(CCC(=O)O)c1ccc(S(N)(=O)=O)cc1 [Compound 26] |  |  |  |  |  |  |  |  |  |  |  |  |  |  |  |  |  |  |  |  | Kd [1]: 5000 nM; Kd [2]: 10000 nM; Kd [3]: 10000 nM; Kd [4]: 33000 nM |
| Cc1csc(N(CCC(=O)O)c2ccc(S(N)(=O)=O)cc2)n1 [Compound 27, 3-((4-Methylthiazol-2-yl)(4-sulfamoylphenyl)amino)propanoic acid] | 870 nM | -15.8 kcal/mol | 170 nM | -14.1 kcal/mol | 560 nM | -14.7 kcal/mol | 250 nM | -16 kcal/mol | 48 nM | -15 kcal/mol | 67 nM | -13.5 kcal/mol | -13.9 kcal/mol | 1400 nM | -15 kcal/mol | 180 nM | -14.7 kcal/mol | 220 nM | 63000 nM | 162 to 163 °C | Kd [5, 21]: ≥ 200000 nM; pKa [7, 22]: 10.4; Intrinsic Gibbs energy change (ΔGint), CAIII ([17]; 37 °C, calculated (Equation 5)): -11.6 kcal/mol; Intrinsic Gibbs energy change (ΔGint), CAVI [18]: -13 kcal/mol; Kd [18]: 18000 nM |
| COC(=O)CCN(c1ccc(S(N)(=O)=O)cc1)c1nc(C)cs1 [Compound 28, Methyl 3-((4-Methylthiazol-2-yl)(4-sulfamoylphenyl)amino)propanoate] | 250 nM | -16.4 kcal/mol | 29 nM | -15.2 kcal/mol | 46 nM | -15.1 kcal/mol | 77 nM | -15.8 kcal/mol | 33 nM | -15 kcal/mol | 37 nM | -13.8 kcal/mol | -13.6 kcal/mol | 1100 nM | -14.3 kcal/mol | 250 nM | -15.3 kcal/mol | 45 nM | ≥ 200000 nM | 72 to 73 °C | Intrinsic Gibbs energy change (ΔGint), CAVA ([5]; 37 °C, calculated (Equation 5)): -11.2 kcal/mol; Kd ([5]; 200 µM the weakest detectable Kd_obs, read-out: Kd_obs, CAVA): 50000 nM; pKa [7, 22]: 10.1; Kd [19]: 59 nM; Intrinsic Gibbs energy change (ΔGint), CAVI [18]: -13.2 kcal/mol; Kd [18]: 7100 nM |
| Cc1csc(N(CCC(=O)NN)c2ccc(S(N)(=O)=O)cc2)n1 [Compound 29, 4-((3-Hydrazineyl-3-oxopropyl)(4-methylthiazol-2-yl)amino)benzenesulfonamide] | 1700 nM | -15.8 kcal/mol | 130 nM | -15.2 kcal/mol | 77 nM | -14 kcal/mol | 670 nM | -15.5 kcal/mol | 80 nM | -14.4 kcal/mol | 150 nM | -12.9 kcal/mol | -13.7 kcal/mol | 1500 nM | -13.9 kcal/mol | 830 nM | -14.3 kcal/mol | 380 nM | ≥ 200000 nM | 167 to 168 °C | Kd [5, 21]: ≥ 200000 nM; pKa [7, 22]: 10.3; Intrinsic Gibbs energy change (ΔGint), CAVI [18]: -12.8 kcal/mol; Kd [18]: 20000 nM |
| CCOC(=O)c1sc(N(CCC(=O)OC)c2ccc(S(N)(=O)=O)cc2)nc1C [Compound 32, Ethyl 2-((3-Methoxy-3-oxopropyl)(4-sulfamoylphenyl)amino)-4-methylthiazole-5-carboxylate] | 330 nM | -13.8 kcal/mol | 770 nM | -14.9 kcal/mol | 30 nM | -14.2 kcal/mol | 130 nM | -14.1 kcal/mol | 190 nM | -12.5 kcal/mol | 830 nM | -13.1 kcal/mol | -12.7 kcal/mol | 2000 nM | -11.7 kcal/mol | 7700 nM | -14.6 kcal/mol | 53 nM | ≥ 200000 nM | 140 to 141 °C | Kd [5, 21]: ≥ 200000 nM; pKa [7, 22]: 9.7; ΔHobs, CAVB ([20]; 50 mM sodium phosphate buffer, 100 mM NaCl): -9.6 kcal/mol; Kd ([20]; read-out: Observed Dissociation Constant (Kd_obs), CAVB, ITC data in brackets): 41 nM; Intrinsic Gibbs energy change (ΔGint), CAVI [18]: -12.4 kcal/mol; Kd [18]: 10000 nM |
| CCOC(=O)c1sc(N(CCC(=O)NN)c2ccc(S(N)(=O)=O)cc2)nc1C [Compound 33] | 830 nM | -14.3 kcal/mol | 910 nM | -14.7 kcal/mol | 100 nM | -13.4 kcal/mol | 1100 nM | -14 kcal/mol | 630 nM | -12.2 kcal/mol | 3100 nM | -13.1 kcal/mol | -13 kcal/mol | 2800 nM | -11.5 kcal/mol | 26000 nM | -13.8 kcal/mol | 500 nM | ≥ 200000 nM | 206 to 207 °C | Kd [5, 21]: ≥ 200000 nM; pKa ([7]; value marked *: average of measured compounds, used for calculation, read-out: Sulfonamide pKa (not determined, average of all measured compounds)): 10.1; Intrinsic Gibbs energy change (ΔGint), CAVI [18]: -12.4 kcal/mol; Kd [18]: 25000 nM |
